Patent US7875270B2, “Treatment solution and method for preventing posterior capsular opacification by selectively inducing detachment and/or death of lens epithelial cells” (Abbott Medical Optics Inc., priority 2002, dated 2011)

Tested on: human retinal-pigmented epithelial cells (RPECs)
Test: Confluent RPEC monolayers exposed to solutions; MTT cell viability
Type: cell-based
Details: 28 μM, 112 μM and 224 μM bumetanide, ≦200 mM NaCl, 3 μl of 5N NaOH
Experimental: As described below, the confluent monolayers of LECs, CEDCs, and RPECs grown in 96-well flat-bottom plates are exposed to varying concentrations of NaCl (an osmolyte) solution. Two hundred μl of NaCl solution (prepared as described below) are added to each well at concentrations of 137 mM, 170 mM, 340 mM, 680 mM, 1360 mM and 2000 mM NaCl, respectively. The solutions have a pH of 8.0±0.4. The concentrations of NaCl correspond to final osmolarities of about 285 to 4000 mOsm/L, respectively.
The primary and first passages of human lens epithelial cells, human corneal endothelial cells, and human retinal-pigmented epithelial cells are cultured. The LECs, the CEDCs, and the RPECs are isolated from post-mortem eyes by using standard techniques of cell isolation and enzyme digestion. See Uebersax E D, Grindstaff R D and Defoe D M Exp Eye Res. 2000 March; 70(3): 381-90; Wagner L M, Saleh S M, Boyle D J, and Takemoto D J. Mol Vis. 2002 Mar. 14; 8: 59-66; Cammarata P R, Schafer G, Chen S W, Guo Z, and Reeves R E. Invest Ophthalmol Vis Sci. 2002 February; 43(2): 425-33; Rakic J M, Galand A, and Vrensen G F. Exp Eye Res. 2000 November; 71(5): 489-94. LECs and CEDCs are cultured in Eagle's minimum essential medium (MEM). RPECs are cultured in Ham's F10 medium, supplemented with 2 mM glutamine, 25 mmol/L Hepes, pH 7.4, 10 U/mL penicillin, and 10 μg/mL streptomycin and 15% heat-inactivated foetal cow serum (FCS). The primary cultured LECs, CEDCs, and RPECs are sub-cultured at 10^4 cells/wells in 96-well flat-bottom plates until they reached 90 to 100% confluence. These cells are grown to confluence in an incubator with a humidified atmosphere of 5% CO2 at 37° C. The cells are kept in a confluent state for overnight before assays.
After treatment, the treated cells are thoroughly washed, and cultured with fresh media for twelve hours before cell viability is assessed. The capability of these cells to survive at the indicated hypertonic stress levels is assessed by an MTT assay 12-24 hours post-exposure.
MTT assay is an assay to assess mitochondria function, performed as described by Mosmann (Mosmann, T. J Immunol Methods. 1983 Dec. 16; 65(1-2): 55-63. The tetrazolium salt 3-(4,5-dimethylthiazol-2-yl)-2,5-diphenyl tetrazolium bromide (MTT; supplied by Sigma Chemical Co.) is dissolved in Phosphate's Balanced Salt (PBS) Solutions at 5 mg/ml and sterilized by passage through a 0.22 μm Millipore filter. MTT stock solution is added to growth media at a ratio of 1 to 10. Cells are incubated with this growth media for three to four hours. In cells that are alive at the time of adding MTT, mitochondrial dehydrogenase cleaves the tetrazolium ring into a dark blue formazan reaction product, which builds up in the cell. MTT-reacted cultures are observed under brightfield microscopy without further processing. Cells in each well are scored as MTT-positive if they are completely filled with reaction product (in the case of unattached cells) or contain many formazan crystals emanating from multiple foci (in the case of attached or spread cells). MTT-reacted cultures are then lysised by dimethyl sulfoxide (DMSO) and read in a Microplate Reader to obtain a measure of cell viability.
Confluent monolayers of RPECs are prepared as described in Example 1. These cells are exposed for ten minutes to 200 μl/well of the solutions comprising increasing concentrations of NaCl (137 mM, 170 mM, 340 mM, 680 mM, 1360 mM and 2000 mM) at varying pH (8.4±0.5 and 10.6±0.5). The solutions of NaCl are prepared as described in Example 1. The pH of the solutions is adjusted with additions of 1 μl and 5 μl of 5N NaOH as described Example 3.
Confluent monolayers of LECs and RPECs are prepared as described in Example 1. […]
Confluent monolayers of LECs, CEDCs and RPECs are prepared as described in Example 1. […]
To assess whether there is any side effect of this treatment on other ocular cells, confluent monolayers of LECs, CEDCs and RPECs are prepared as described in Example 1. […]

For `CCCCNc1cc(C(=O)O)cc(S(N)(=O)=O)c1Oc1ccccc1` [bumetanide], the “RPECs killed or removed” value was “less than 20%”.
